Values of other authors in US6670356B2, “Analogs of galanthamine and lycoramine as modulators of nicotinic receptors” (priority 1999, dated 2003).

Experiments:
[1] = system: superior cervical ganglion; details: cat
[2] = system: nicotinic receptors of PC12 cells

Structure (SMILES)	IC 50 for cholinesterase inhibition, times lower than for galanthamine (cholinesterase; rat brain, erythrocytes, or gastrocnemius homogenate)	Preservation of the ganglionic surface potential ([1]; direct recordings, treated ganglia)	Inhibition of hexamethonium (C6) induced ganglionic blockade ([1]; intra-arterially, 250 micrograms)	Twitch potentiating effects relative to neostigmine or physostigmine (gastrocnemius; nerve muscle preparation, quoted from the cited authors' discussion)	Twitch potentiation relative to neostigmine or physostigmine (gastrocnemius; quoted from the cited authors)	Mode of action at nicotinic receptors ([2]; PC12 cells)	Single channel activity after incubation with FK1 (competitive monoclonal antibody to physostigmine) ([2]; PC12 cells)	Whole-cell currents evoked ([2]; PC12 cells)	Channel activation ([2]; inside-out patches from PC 12 cells)	Anticholinesterase activity relative to neostigmine or physostigmine (cholinesterase; quoted from the cited authors' discussion)
CN(C)C(=O)Oc1cccc([N+](C)(C)C)c1 [neostigmine]	~200 times lower									
COc1ccc2c3c1O[C@H]1C[C@@H](O)C=C[C@@]31CCN(C)C2 [galanthamine]		preservation of the surface potential is shown	substantially inhibited	1/10	1/10	noncompetitive agonists	neither physostigmine nor galanthamine could induce	do not evoke sizable whole-cell currents	cause some channel activation	1/100
COc1ccc2c3c1O[C@H]1[C@@H](O)C=C[C@H]4[C@@H](C2)N(C)CC[C@@]341 [codeine]								do not evoke sizable whole-cell currents		
